The results in this text go back to patent publication EP0336753A1, “Improvements in or relating to propanamine derivatives” (ELI LILLY AND COMPANY, priority 1988, dated 1989).

Where two headings read alike, the source gives them in different places.

One test has as its target T1, serotonin (5HT) uptake (Rattus norvegicus, UniProt P31652).
T1 construct: Crude synaptosomal preparations were isolated after differential centrifugation; from tissue; host or cells: rat cerebral cortex, crude synaptosomes
Briefly: Inhibition of synaptosomal uptake of 3H-serotonin in vitro. The following applies: for inhibition at 1 µM: 1000 nM test compound, number in parentheses, read-out: percent inhibition at 1000 nM (5HT). The format is biochemical, rats. Here is the method: (§1) This general procedure is set forth by Wong et al., in Drug Development Research 6:397-403 (1985).
(§2) Male Sprague-Dawley rats (110-150 g) from Harlan Industries (Cumberland, IN) were fed a Purina Chow ad libitum for at least 3 days before being used in the studies. Rats were killed by decapitation. Whole brains were removed and dissected. Cerebral cortex was homogenized in 9 volumes of a medium containing 0.32 M sucrose and 10 mM glucose. Crude synaptosomal preparations were isolated after differential centrifugation at 1,000 g for 10 min. and 17,000 g for 28 min. The final pellets were suspended in the same medium and kept in ice until use within the same day.
(§3) Synaptosomal uptake of ³H-serotonin(³H-5-hydroxytryptamine, ³H-5HT) and ¹⁴C-ℓ-norepinephrine (¹⁴C-NE) was determined as follows. Cortical synaptosomes (equivalent to 1 mg of protein) were incubated at 37°C for 5 min in 1 ml of Krebs-bicarbonate medium containing also 10 mM glucose, 0.1 mM iproniazid, 1 mM ascorbic acid, 0.17 mM EDTA, 50nM, ³H-5HT and 100 nM ¹⁴C-NE. The reaction mixture was immediately diluted with 2 ml of ice-chilled Krebs-bicarbonate buffer and filtered under vacuum with a cell harvester (Brandel, Gaithersburg, MD). Filters were rinsed twice with approximately 5 ml of ice-chilled 0.9% saline and were transferred to a counting vial containing 10 ml of scintillation fluid (PCS, Amersham, Arlington Heights, IL). Radioactivity was measured by a liquid scintillation spectrophotometer. Accumulation of ³H-5HT and ¹⁴C-NE at 4°C represented the background and was subtracted from all samples.
(§4) The results of the evaluation of various compounds of the present invention are set forth below in Table I. In the Table, column 1 identifies the Example number of the compounds evaluated, and columns 2 and 3 provide the concentration of the test compound at 10⁻⁹M (nM) needed to inhibit 50% of serotonin (5HT) or norepinephrine, respectively, and is indicated in the Table as IC₅₀. The numbers in parentheses represent percent inhibition at 1000 nM.

For test [1], the target named is T2, norepinephrine (NE) uptake (Rattus norvegicus, UniProt Q63380).
T2 construct: Crude synaptosomal preparations were isolated after differential centrifugation; from tissue; host or cells: rat cerebral cortex, crude synaptosomes
As to the kind of experiment: Inhibition of synaptosomal uptake of 14C-l-norepinephrine in vitro. Type of test: biochemical, rats. The following applies: for IC50: 100 nM ¹⁴C-NE, 37°C for 5 min, read-out: IC₅₀(nM) NE; for inhibition at 1 µM: read-out: percent inhibition at 1000 nM (NE). As for the experimental part: as §1, §2, §3, §4

Where [2] appears, read: rat cerebral cortex synaptosomes.
Where [3] appears, read: 1000 nM test compound, number in parentheses, rat cerebral cortex synaptosomes.

T2 sequence (Q63380 1-617): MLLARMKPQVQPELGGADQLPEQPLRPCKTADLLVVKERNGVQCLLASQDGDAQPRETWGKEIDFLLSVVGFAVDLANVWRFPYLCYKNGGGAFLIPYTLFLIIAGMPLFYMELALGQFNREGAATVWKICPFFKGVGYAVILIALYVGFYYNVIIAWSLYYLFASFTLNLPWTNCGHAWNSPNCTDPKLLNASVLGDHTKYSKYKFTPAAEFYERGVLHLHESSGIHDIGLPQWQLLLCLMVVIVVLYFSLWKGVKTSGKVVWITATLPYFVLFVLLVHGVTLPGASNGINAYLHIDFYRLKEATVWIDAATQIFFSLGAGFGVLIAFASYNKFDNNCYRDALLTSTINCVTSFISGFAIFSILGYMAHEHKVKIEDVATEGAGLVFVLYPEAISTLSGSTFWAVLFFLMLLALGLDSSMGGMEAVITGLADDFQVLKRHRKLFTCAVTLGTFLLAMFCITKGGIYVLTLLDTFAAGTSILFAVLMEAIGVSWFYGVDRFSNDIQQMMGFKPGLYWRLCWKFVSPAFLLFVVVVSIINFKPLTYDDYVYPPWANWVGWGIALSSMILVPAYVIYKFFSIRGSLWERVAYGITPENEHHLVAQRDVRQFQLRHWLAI
T1 sequence (P31652 whole entry): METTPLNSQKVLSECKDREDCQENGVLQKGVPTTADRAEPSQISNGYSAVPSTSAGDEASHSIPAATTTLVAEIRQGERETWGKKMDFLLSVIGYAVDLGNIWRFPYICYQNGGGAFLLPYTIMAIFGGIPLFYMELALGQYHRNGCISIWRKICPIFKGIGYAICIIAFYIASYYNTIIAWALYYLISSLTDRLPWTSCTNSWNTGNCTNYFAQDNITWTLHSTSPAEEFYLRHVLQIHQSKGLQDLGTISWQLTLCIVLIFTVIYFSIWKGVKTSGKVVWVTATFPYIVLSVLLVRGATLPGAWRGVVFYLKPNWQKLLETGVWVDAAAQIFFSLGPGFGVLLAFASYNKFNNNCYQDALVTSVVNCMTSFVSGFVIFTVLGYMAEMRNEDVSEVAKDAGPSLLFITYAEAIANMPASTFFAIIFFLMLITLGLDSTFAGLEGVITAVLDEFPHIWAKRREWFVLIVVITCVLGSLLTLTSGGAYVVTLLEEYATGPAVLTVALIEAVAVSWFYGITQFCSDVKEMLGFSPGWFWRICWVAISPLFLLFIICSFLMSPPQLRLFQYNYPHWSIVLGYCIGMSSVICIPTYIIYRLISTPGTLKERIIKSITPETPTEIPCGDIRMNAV

For `CSc1ccc(OC(CCN(C)C)c2ccccc2)cc1` (centres unmarked) [Example 1, N,N-Dimethyl-γ-[4-(methylthio)phenoxy]benzenepropanamine ethanedioate], the values for the IC50 (against serotonin (5HT) uptake; in test [1] (setting [2])) were 160 nM and over 1000 nM, respectively. For the same compound, the inhibition (as a rule, the percentage by which the read-out fell short of the control) at 1 µM in test [1] was 18%.
`CN(C)CCC(Oc1ccc(NS(C)(=O)=O)cc1)c1ccccc1` (centres unmarked) [Example 5, N-{4-[1-Phenyl-3-(dimethylamino)propoxy]phenyl}methanesulfonamide]: the IC50 (against serotonin (5HT) uptake; in test [1] (setting [2])) was over 1000 nM throughout. Also, the inhibition at 1 µM on serotonin (5HT) uptake (setting [2]) came out at 30%; in test [1] (setting [3]), 15%.
Take `CNCCC(Oc1ccc(SC(F)(F)F)cc1)c1ccccc1` (centres unmarked) [Example 3, N-Methyl-γ-{4-[trifluoromethyl)thio]phenoxy}benzenepropanamine ethanedioate]: the inhibition at 1 µM came out at 39% at serotonin (5HT) uptake (setting [2]) and 9% in test [1] (setting [3]). Moreover, the IC50 was over 1000 nM at serotonin (5HT) uptake (rat cerebral cortex synaptosomes, 50 nM ³H-5HT, 37°C for 5 min, read-out: IC₅₀(nM) 5HT) and over 1000 nM in test [1] (setting [2]).
In the case of `CNCCC(Oc1ccc(SC)cc1)c1ccccc1` (centres unmarked) [Example 2, N-Methyl-γ-[4-(methylthio)phenoxy]benzenepropanamine ethanedioate], the results for the IC50 (against serotonin (5HT) uptake; in test [1] (setting [2])) were 48 nM and 704 nM, respectively.
Turning to `CN(C)CCC(Oc1ccc(S(N)(=O)=O)cc1)c1ccccc1` (centres unmarked) [Example 4, 4-[3-(Dimethylamino)-1-phenylpropoxy]benzenesulfonamide ethanedioate], the IC50 (against serotonin (5HT) uptake; in test [1] (setting [2])) was over 1000 nM throughout. In addition, the inhibition at 1 µM on serotonin (5HT) uptake (setting [2]) was determined as 15%; in test [1], 0%.
